Data on 57 molecules can be found in PubChem BioAssay AID602217 (Sanford-Burnham Center for Chemical Genomics, 2012).

The source made the active and inactive calls.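 The calls were made as follows: active = IC50 at or below a set limit; inactive = the rest.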

The assay deals with HL-1 cardiomyocytes, 2-deoxyglucose injury, ATPLite luminescence, 2 h. In words: 2-DG-induced HL-1 ATP loss suppression – cell-based, ATPLite luminescence, dose response (AID 602217).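 Also: cells kept in glucose-free DMEM during the 2-deoxyglucose injury; potency of protection where actives preserve ATP signal against 2-deoxyglucose stress.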 On the technique in general: ATP-based viability assays read luminescence as a measure of living cells.
Consider `Cc1cccc(NC(=O)c2nc[nH]c2C(=O)NCCCCNC(=O)c2[nH]cnc2C(=O)Nc2cccc(C)c2)c1`, for which the IC50 was > 79 µM (inactive).

Consider `COc1cc(-c2cc(C(=O)NCc3ccco3)c3ccccc3n2)cc(OC)c1OC`, for which the IC50 was 31.6 µM (inactive).

Consider `Nc1c(C(=O)N/N=C/c2cccnc2)oc2nc(-c3ccco3)cc(-c3ccco3)c12`, for which the IC50 is > 79 µM (inactive).

On to `COc1ccc(Nc2nc(C(=O)N3CCc4cc(OC)c(OC)cc4C3)cs2)cc1`, for which the IC50 was 42 µM (inactive).

`CC12C=CC(=O)CC1CCC1C2CCC2(C)C(O)C(O)CC12` (configuration not stated): the IC50 is > 79 µM (inactive).

Consider `COc1ccc(C(C(=O)NC2CCCC2)N(C(=O)c2snc(C(N)=O)c2N)c2cccc(O)c2)cc1` (configuration not stated), for which the IC50 is 40.9 µM (inactive).

For `COc1ccc(-c2cc(C(=O)Nc3ccccc3N3CCOCC3)c3ccccc3n2)cc1OC`, the IC50 is > 79 µM (inactive).

As for `Cn1c(=O)c2[nH]c(NN=Cc3ccc(Br)cc3)nc2n(C)c1=O`, the IC50 is 10.2 µM.

On to `COc1ccc(-c2nn(-c3ccccc3)cc2C(=O)Nc2nccs2)cc1`, for which the IC50 was 53.5 µM (inactive).

`O=C(CN1CCN(c2ccccn2)CC1)Nc1ccc([N+](=O)[O-])cc1C(=O)Nc1ccccc1F`: the IC50 is 17.9 µM.

In the case of `CCOC(=O)C1CCN(c2cc3c(cc2NC(=O)c2ccc(OC)c(OC)c2)n(C)c(=O)n3C)CC1`, the IC50 was > 79 µM (inactive).

Take `CC(=O)Nc1cc(-c2cccc(NS(C)(=O)=O)c2)cn2c(-c3cccc(C(C)=O)c3)cnc12`: the IC50 is 36.4 µM (inactive).

Consider `N#C/C(=C\Nc1ccc2c(c1)OCCO2)c1nc2ccccc2[nH]1`, for which the IC50 is > 79 µM (inactive).

With `CC(=O)Nc1ccc(Nc2nc(-c3sc(NC(C)=O)nc3C)cs2)cc1`, the IC50 is 43.6 µM (inactive).

Turning to `COc1ccccc1OP(=O)(Nc1cccnc1)Oc1ccccc1OC`, the IC50 is 21.2 µM (inactive).

Turning to `CCN(CC)C(=O)c1[nH]cnc1C(=O)NCC(=O)OCc1ccccc1`, the IC50 is 69.9 µM (inactive).

As for `COc1ccc2[nH]c(=O)c(CN(Cc3cccnc3)S(=O)(=O)c3ccccc3F)cc2c1`, the IC50 was 18.2 µM.

As for `COc1cc(/C=N/NC(=O)NC23CC4CC(CC(C4)C2)C3)ccc1OCC(N)=O`, the IC50 was > 79 µM (inactive).

As for `COc1cc(NC(=O)c2cc3ccccc3cc2OC)ccc1NC(=O)c1cccs1`, the concentration for half-maximal inhibition (IC50) was 5.85 µM.

Regarding `CC1Nc2ncnc(N3CCN(c4ccccc4)CC3)c2N(Cc2ccc(Cl)cc2)C1=O` (configuration not stated), the IC50 was 1.95 µM.

On to `C=CCOC(=O)C1=C[C@H](c2cn(C(C)=O)c3ccccc23)C[C@H](OCc2ccc(CO)cc2)O1`, for which the IC50 was > 79 µM (inactive).

In the case of `CC(=O)c1ccc(-c2ccc(C(=O)Nc3nc(-c4ccccn4)cs3)o2)cc1`, the IC50 is > 79 µM (inactive).

In the case of `COc1cc(Nc2nc3ccccc3n3nnnc23)cc(OC)c1OC`, the IC50 was > 79 µM (inactive).

With `COc1ccc(-n2c(/C=C/c3ccc(O)c(OC)c3)nc3ccccc3c2=O)cc1`, the IC50 was 21.3 µM (inactive).

`N#Cc1c(-c2ccco2)cc(-c2cccnc2)nc1N`: the IC50 was 14.6 µM.

As to `Cc1cc(N)n(-c2nc(-c3cccnc3)nc3ccccc23)n1`, the IC50 was > 79 µM (inactive).

With `Fc1ccc(-n2cc(-c3ccccc3)c3c(N4CCOCC4)ncnc32)cc1`, the half-inhibitory concentration (IC50) was 8.35 µM.

For the molecule `COc1cc(C(=O)NCC(=O)N/N=C/c2ccc(-c3cccc([N+](=O)[O-])c3)o2)cc(OC)c1OC`, the IC50 was > 79 µM (inactive).

On to `CC(=O)Nc1ccc(C(=O)N/N=C/c2ccccc2OC(=O)c2ccc(Cl)cc2)cc1`, for which the IC50 was > 79 µM (inactive).

On to `Cc1cccc(NC(=O)c2oc3ccc(S(=O)(=O)N4CCOCC4)cc3c2C)c1C`, for which the IC50 was 30.5 µM (inactive).

With `CN(C)S(=O)(=O)c1ccc2[nH]cc(/C=C/c3nc4ccccc4c(=O)n3-c3ccccc3)c2c1`, the IC50 was 5 µM.

Take `O=C(N/N=C/c1ccccn1)c1cc(-c2cccc3ccccc23)n[nH]1`: the IC50 was 2.9 µM.

As for `CC(C)=NNc1cnnc2ccc([N+](=O)[O-])cc12`, the IC50 is > 79 µM (inactive).

On to `CC(C)(C)NC(=O)COC(=O)c1c2c(nc3ccccc13)CCC2`, for which the IC50 was 23.7 µM (inactive).

Consider `COc1cccc(-c2cnc3c(NC=O)cc(-c4cc(C)c(O)c(C)c4)cn23)c1`, for which the IC50 is > 79 µM (inactive).

With `CCOc1ccc(C(C(=O)NC2CCCC2)N(C(=O)c2snc(C(N)=O)c2N)c2cccc(O)c2)cc1` (configuration not stated), the IC50 was 13.1 µM.

For `CC(OC(=O)c1cc(-c2cccnc2)nc2ccccc12)C(=O)Nc1ccc2ccccc2c1` (configuration not stated), the IC50 is > 79 µM (inactive).

For `COc1cccc(-c2cnc3c(NC=O)cc(-c4ccc(O)c(OC)c4)cn23)c1`, the IC50 was 27.4 µM (inactive).

On to `COc1cc(-c2cc(C(=O)Nc3ccccc3N3CCOCC3)c3ccccc3n2)cc(OC)c1OC`, for which the IC50 is 13.1 µM.

In the case of `O=C1OCCN1C(=O)[C@H]1[C@H](c2ccc([N+](=O)[O-])cc2)C(c2ccc(F)cc2)=NN1c1ccc(Br)cc1`, the IC50 is > 79 µM (inactive).

Take `COc1ccc(-c2cc(C(=O)N(C)Cc3nc4ccccc4c(=O)[nH]3)c3ccccc3n2)cc1OC`: the IC50 was 21.9 µM (inactive).

On to `O=[N+]([O-])c1ccc(Nc2nc(N/N=C/c3cccc(F)c3)nc(N3CCCC3)n2)cc1`, for which the IC50 was > 79 µM (inactive).

Turning to `O=C(c1cc(=O)[nH]c2ccccc12)N1CCN(S(=O)(=O)c2ccc(Cl)cc2)CC1`, the IC50 is 58.3 µM (inactive).

With `O=C(C(=O)N(Cc1ccccc1)Cc1ccccc1)c1c(-c2ccccc2)[nH]c2ccccc12`, the 50% inhibitory concentration (IC50) is 4.8 µM.

For `CCOC(=O)C(Cc1ccc(NC(=O)/C(=C/c2ccc(OC(C)=O)cc2)NC(C)=O)cc1)N1C(=O)c2ccccc2C1=O` (configuration not stated), the IC50 is 52.5 µM (inactive).

As to `COc1nc(N/N=C/c2cc3c(cc2Br)OCO3)nc(N2CCOCC2)n1`, the IC50 is > 79 µM (inactive).

As to `COc1ccc(NC(=O)c2cc(-c3ccccn3)nc3ccccc23)cc1S(=O)(=O)N(C)C`, the IC50 was 20.5 µM (inactive).

On to `COc1cc(OC)cc(C(=O)Nc2ccc(C(=O)Nc3ccccc3OC)cc2)c1`, for which the IC50 is > 79 µM (inactive).

Consider `COc1ccc(N(CC(=O)Nc2cccc(C(C)=O)c2)S(=O)(=O)c2ccc(NC(C)=O)cc2)cc1`, for which the IC50 was > 79 µM (inactive).

With `COc1cc(NC(=O)c2ccco2)c(OC)cc1NC(=O)c1cc(OC)c(OC)c(OC)c1`, the concentration for half-maximal inhibition (IC50) was 18.1 µM.

For the molecule `COc1cc(OC)cc(-c2cc3nc(C)c(CCC(=O)Nc4nc(C)cs4)c(C)n3n2)c1`, the IC50 is > 79 µM (inactive).

Regarding `Cc1nc(N2CCN(c3ccccn3)CC2)c2c(C)c(C(=O)Nc3ccc(F)cc3)sc2n1`, the IC50 is > 79 µM (inactive).

For `CCOc1ccccc1Nc1nnc(SCc2nnc(-c3cc(OC)c(OC)c(OC)c3)o2)s1`, the 50% inhibitory concentration (IC50) is 14.6 µM.

Consider `COc1ccc(-c2csc(NC(=O)c3cccc(N4C(=O)CCC4=O)c3)n2)cc1OC`, for which the IC50 was 29.9 µM (inactive).

In the case of `O=C(CNC(=O)c1[nH]cnc1C(=O)NC(c1ccccc1)c1ccccc1)OCc1ccccc1`, the IC50 was > 79 µM (inactive).

As to `CCc1nc2ccc(C(=O)Nc3cc(-c4ccccc4)ccc3OC)cn2c1N(C)Cc1nccs1`, the IC50 is > 79 µM (inactive).

For `COc1cc(-c2cc3nc(NCCc4ccc(S(N)(=O)=O)cc4)ccn3n2)cc(OC)c1OC`, the IC50 is 48.7 µM (inactive).

Broadly, the IC50 is the point on the concentration scale where inhibition reaches its midpoint.
